Measured values: patent US20240316020A1, “Novel Pyridine Compounds” (ICAGEN, LLC, priority 2021, published 2024)
pEC50: −log10 of the molar value.

Legend:
[1] = Human liver microsomal clearance; type: in vitro ADME; settings: both sexes, liver microsomes, Table B, 0.5 μM compound, 0.25 mg/mL microsomes, NADPH, 37° C., read-out: Human liver microsomal intrinsic clearance CLint
Experimental: Pooled mixed gender human liver microsomes were purchased from BioIVT at a concentration of 20 mg protein/mL and stored at −80° C. Incubations were conducted in V-bottomed 350 μL polypropylene 96-well plates. Compounds were diluted in phosphate buffer (final concentrations 0.5 μM compound, 0.5% DMSO) and mixed with diluted liver microsomes (fc 0.25 mg/mL). This mixture was aliquoted onto the assay plate (six wells per compound) and pre-warmed at 37° C. for ten minutes. Addition of NADPH (fc 0.5 mM, final incubation volume 100 μL) to each well started the time course. Reactions were stopped at 0.5, 3, 5, 10, 20 & 30 minutes by addition of 150 μL acetonitrile containing internal standard (IS; 0.125 μg/mL daidzein) and stopped samples were removed to a clean polypropylene plate. At the end of the assay the plate was refrigerated for an hour and then centrifuged at 3000 rpm for 10 minutes at 4° C. A sample of the supernatant was removed to a fresh plate and diluted 10-fold with 50:50 acetonitrile:water, then heat sealed. Analysis was by liquid chromatography coupled with tandem mass spectrometry (LC-MS/MS) for analyte and IS levels. Ratios of the analyte and IS peak areas were generated for results calculation (IS ratio). Dextromethorphan and verapamil were included in each experiment as controls for high clearance compounds. IS ratio data were converted into natural log values which were plotted against time and a linear regression fit applied. The slope of the line was returned and converted into the elimination constant (kel) by multiplying by −1. The elimination constant was used to calculate the in vitro CLint: in vitro CLint (μL/min/mg protein) is kel* (1000/protein conc in mg/mL).

human Kv7.2 = human Kv7.2 (Homo sapiens (Human), UniProt O43526); assay: SyncroPatch 384 electrophysiology, CHO cells stably expressing human Kv7.2; type: cell-based
Sequence of human Kv7.2 (O43526 whole entry): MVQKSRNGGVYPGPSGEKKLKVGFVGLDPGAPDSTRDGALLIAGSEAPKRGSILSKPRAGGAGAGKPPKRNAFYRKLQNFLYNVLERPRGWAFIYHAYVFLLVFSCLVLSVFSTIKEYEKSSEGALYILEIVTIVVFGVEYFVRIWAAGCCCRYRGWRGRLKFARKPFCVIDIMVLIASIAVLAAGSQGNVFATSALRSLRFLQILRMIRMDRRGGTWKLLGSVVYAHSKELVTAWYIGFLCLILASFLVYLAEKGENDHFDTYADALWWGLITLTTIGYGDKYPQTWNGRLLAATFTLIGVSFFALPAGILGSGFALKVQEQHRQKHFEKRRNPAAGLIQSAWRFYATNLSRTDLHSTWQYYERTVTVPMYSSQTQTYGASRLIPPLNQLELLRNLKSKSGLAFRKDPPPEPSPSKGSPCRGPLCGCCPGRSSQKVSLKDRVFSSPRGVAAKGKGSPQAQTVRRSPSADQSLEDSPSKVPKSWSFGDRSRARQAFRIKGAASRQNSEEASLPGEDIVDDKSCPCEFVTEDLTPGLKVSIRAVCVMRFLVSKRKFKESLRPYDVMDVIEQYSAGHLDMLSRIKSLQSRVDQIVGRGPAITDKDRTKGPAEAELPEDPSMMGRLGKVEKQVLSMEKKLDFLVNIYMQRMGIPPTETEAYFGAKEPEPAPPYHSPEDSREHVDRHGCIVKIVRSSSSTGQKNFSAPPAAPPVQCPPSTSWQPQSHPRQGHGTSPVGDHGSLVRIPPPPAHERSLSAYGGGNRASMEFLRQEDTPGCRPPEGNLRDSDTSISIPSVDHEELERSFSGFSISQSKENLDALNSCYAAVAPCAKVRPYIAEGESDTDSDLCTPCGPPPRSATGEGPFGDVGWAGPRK
Experimental: (§1) The potency of Kv7 potentiators was determined using the SyncroPatch 384 (Nanion) high throughput electrophysiology platform.
(§2) CHO cells stably expressing either human Kv7.2, Kv7.4 or Kv7.5/7.3 under a constitutive CMV promoter were used for these studies. Cells were maintained in F12 Hams+1 mM L-glutamine (Hyclone) supplemented with 10% FBS (Sigma), 0.3×NEAA (Non-essential Gamino-acids) and 400 ug/ml G418 at 37° C. in 5% CO2. Cells were cultured in T-225 flasks (Nunc) for 2-3 days to reach 85-95% confluence prior to electrophysiological recording.
(§3) Earle's balanced salt solution (in mM): 135 NaCl, 5.4 KCl, 5 Glucose, 2 CaCl2, 1 MgCl2, 5 HEPES, pH 7.4. Seal enhancer solution (in mM): 90 NaCl, 3 KCl, 35 CaCl2, 10 MgCl2, 10 HEPES, pH 7.4. Extracellular recording solution (in mM): 71 NaCl, 70 NMDG, 13 KCl, 5 Glucose, 2 CaCl2, 1 MgCl2, 10 HEPES, pH 7.4. Intracellular recording solution (in mM): 130 KF, 20 KCl, 4 EGTA, 10 HEPES, 2 EDTA, 0.01 Escin, pH 7.2.
(§4) Cells were harvested for electrophysiological recording upon reaching appropriate confluence. Cells were first washed in DPBS (Hyclone, Cat #SH30028.03) and then 2 ml of Accutase (MP Biomedicals #1000449) was added at 28° C. until ˜90% of cells were suspended. F12 HAM's media+1 mM L-glutamine (Hyclone, SH30026.02) was then added to the flask to dilute the accutase. Cells were then triturated until a single cell suspension was achieved, a cell count was performed, and cells were centrifuged for 2 min. at 1,000 rpm. Media was then aspirated, and cells were resuspended in Earle's balanced salt solution to a concentration of 0.75×10^6 cells/ml and allowed to recover for 25 min at 10° C.
(§5) At the beginning of each assay, 20 μl of cell suspension was dispensed into each well of a multi-hole 384-well SyncroPatch chip by the onboard pipettor. Cell sealing was initiated, and seal enhancer solution was added to facilitate seal formation. Upon completion of sealing, cells were washed 3 times with extracellular recording solution and the assay voltage protocol was started. Human Kv7.2, Kv7.4 or Kv7.5/7.3 channels were evaluated using a voltage protocol in which cells were voltage-clamped at a holding potential of −60 mV. Potassium currents were continuously activated with a series of three voltage steps to −30 mV for 3 seconds, 40 mV for 1 second and −90 mV for 4 seconds with 12 seconds between successive voltage sweeps. Potassium currents were measured from the −90 mV repolarizing step. Baseline current was assessed for 3.5 minutes prior to the addition of 5.6 μM zinc pyrithione (1 μM for Kv7.4). Kv7.2, Kv7.4 or Kv7.5/7.3 current in the presence of zinc pyrithione was acquired over five minutes to allow channels to reach steady state activity prior to addition of test agents. Channel activity was monitored for three minutes preceding the addition of 30 μM ML-213 (3 minutes) to achieve maximum activation.
(§6) Data were collected on the SyncroPatch platform using PatchControl software (Nanion) and processed and analyzed using DataControl Software (Nanion). Percent activation was calculated from potassium current as follows: The average current for the 5 sweeps in the presence of zinc pyrithione immediately preceding test agent addition was taken as the ‘control’ data. Likewise, the average potassium current in the presence of test agents 5 sweeps immediately preceding addition of 30 μM ML-213 was determined for ‘drug’ data. The average potassium current 5 sweeps immediately prior to addition of 150 mM TEA+10 μM XE-991 was determined for ‘max activation’ data while average currents from 5 sweeps immediately following addition of TEA was determined for ‘max inhibition’ data. Percent activation for each of the 384-wells of a sealchip was calculated as ((‘drug’−‘max inhibition’)/(‘max activation’−‘max inhibition’))*100 with Pipeline Pilot (Accelrys). […]

human Kv7.5/7.3 = human Kv7.5/7.3 (Homo sapiens (Human), UniProt O43525+Q9NR82); assay: SyncroPatch 384 electrophysiology, CHO cells stably expressing human Kv7.5/7.3; type: cell-based; settings: Table A; for Kv7.5/7.3/Kv7.2 selectivity ratio: Kv7.5/7.3 EC50 over Kv7.2 EC50
Sequence of human Kv7.5/7.3 (Q9NR82 whole entry): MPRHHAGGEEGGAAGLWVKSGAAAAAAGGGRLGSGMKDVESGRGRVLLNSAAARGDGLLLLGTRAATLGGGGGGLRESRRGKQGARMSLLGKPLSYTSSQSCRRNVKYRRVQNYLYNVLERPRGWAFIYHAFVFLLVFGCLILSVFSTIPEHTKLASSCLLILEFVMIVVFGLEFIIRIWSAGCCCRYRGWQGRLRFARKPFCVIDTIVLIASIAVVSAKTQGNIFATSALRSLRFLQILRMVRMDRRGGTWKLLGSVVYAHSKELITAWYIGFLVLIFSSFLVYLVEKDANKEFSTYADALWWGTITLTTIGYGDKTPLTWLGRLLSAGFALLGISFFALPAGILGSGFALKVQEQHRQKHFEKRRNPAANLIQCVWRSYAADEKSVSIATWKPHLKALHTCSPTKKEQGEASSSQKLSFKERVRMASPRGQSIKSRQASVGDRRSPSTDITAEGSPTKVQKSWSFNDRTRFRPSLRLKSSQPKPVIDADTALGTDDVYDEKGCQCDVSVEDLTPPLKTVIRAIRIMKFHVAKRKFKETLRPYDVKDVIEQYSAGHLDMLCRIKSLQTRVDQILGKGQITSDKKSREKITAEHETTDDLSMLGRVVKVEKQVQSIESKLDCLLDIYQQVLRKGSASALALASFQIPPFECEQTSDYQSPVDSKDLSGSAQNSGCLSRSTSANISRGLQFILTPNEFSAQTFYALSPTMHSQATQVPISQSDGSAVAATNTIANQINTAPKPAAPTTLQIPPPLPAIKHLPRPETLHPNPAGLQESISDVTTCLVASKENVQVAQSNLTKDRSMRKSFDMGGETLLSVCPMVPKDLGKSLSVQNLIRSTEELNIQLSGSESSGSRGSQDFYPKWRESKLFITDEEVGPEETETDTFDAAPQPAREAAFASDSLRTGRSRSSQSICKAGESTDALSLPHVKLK
Sequence of human Kv7.5/7.3 (O43525 whole entry): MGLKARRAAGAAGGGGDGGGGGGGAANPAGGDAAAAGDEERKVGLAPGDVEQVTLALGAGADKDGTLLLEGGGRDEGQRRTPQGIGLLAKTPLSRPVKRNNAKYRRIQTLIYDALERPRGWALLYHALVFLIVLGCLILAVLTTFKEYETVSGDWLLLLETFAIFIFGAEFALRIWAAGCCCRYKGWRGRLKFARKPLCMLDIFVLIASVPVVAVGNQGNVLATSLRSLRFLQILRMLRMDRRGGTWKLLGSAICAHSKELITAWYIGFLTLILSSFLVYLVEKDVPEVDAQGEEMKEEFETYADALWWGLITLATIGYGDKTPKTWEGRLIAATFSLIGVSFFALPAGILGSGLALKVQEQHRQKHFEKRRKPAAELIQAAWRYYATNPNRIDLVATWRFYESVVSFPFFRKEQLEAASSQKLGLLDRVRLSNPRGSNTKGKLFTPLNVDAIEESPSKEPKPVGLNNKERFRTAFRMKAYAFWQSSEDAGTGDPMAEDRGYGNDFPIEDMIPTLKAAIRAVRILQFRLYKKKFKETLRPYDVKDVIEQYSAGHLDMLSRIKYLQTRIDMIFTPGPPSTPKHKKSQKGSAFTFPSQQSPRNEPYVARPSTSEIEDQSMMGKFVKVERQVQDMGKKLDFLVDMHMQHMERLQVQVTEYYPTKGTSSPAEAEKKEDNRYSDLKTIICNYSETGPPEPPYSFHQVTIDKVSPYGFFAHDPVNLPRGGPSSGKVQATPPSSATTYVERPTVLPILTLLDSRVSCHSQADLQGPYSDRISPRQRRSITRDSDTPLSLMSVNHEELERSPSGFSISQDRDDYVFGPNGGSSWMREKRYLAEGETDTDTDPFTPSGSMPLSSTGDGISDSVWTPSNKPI
Experimental: as §1, §2, §3, §4, §5, §6

[2] = Table 1, CHO cells, potassium current at -90 mV step, in presence of zinc pyrithione

microsomal CLint at 0.5 μM [1] [µL/min/mg]	pEC50 (human Kv7.2; [2])	pEC50 (human Kv7.5/7.3)	Kv7.5/7.3/Kv7.2 selectivity ratio (human Kv7.5/7.3)	pEC50 (human Kv7.2; Table A)	Structure (SMILES)
	7.70				O=C(NCc1ccnc(OC(F)F)c1)NC1CC2(CCC2)C1 [Example 4, 1-[[2-(difluoromethoxy)pyridin-4-yl]methyl]-3-spiro[3.3]heptan-2-ylurea]
	7.22				CC(F)COc1cc(CNC(=O)NC2CC3(CCC3)C2)ccn1 (centres unmarked) [Example 6, 1-[[2-(2-fluoropropoxy)pyridin-4-yl]methyl]-3-spiro[3.3]heptan-2-ylurea]
5.2	7.22				O=C(NCc1ccnc(OC(F)F)c1)NC1CC2(CC2)C1 [Example 8, 1-[[2-(difluoromethoxy)pyridin-4-yl]methyl]-3-spiro[2.3]hexan-5-ylurea]
	7.70				O=C(NCc1ccnc(OC(F)F)c1)NC1CCC2(CCC2)C1 (centres unmarked) [Example 11, 1-[[2-(difluoromethoxy)pyridin-4-yl]methyl]-3-spiro[3.4]octan-7-ylurea]
10.7	6.82				O=C(NCc1ccnc(OC(F)F)c1)NC1CC2(CC(F)C2)C1 (centres unmarked) [Example 16, 1-[[2-(difluoromethoxy)pyridin-4-yl]methyl]-3-(2-fluorospiro[3.3]heptan-6-yl)urea]
10.6	5.84				O=C(NCc1ccnc(OC(F)F)c1)NC1COC2(CCC2)C1 (centres unmarked) [Example 22, 1-[[2-(difluoromethoxy)pyridin-4-yl]methyl]-3-(5-oxaspiro[3.4]octan-7-yl)urea]
	5.71	< 4.52	>15	5.71	O=C(NCc1ccnc(OC(F)F)c1)NC1CC12CCC2 (centres unmarked) [Example 23, 1-[[2-(difluoromethoxy)pyridin-4-yl]methyl]-3-spiro[2.3]hexan-2-ylurea]
	7.00				O=C(NCc1ccnc(OCC(F)CF)c1)NC1CC2(CCC2)C1 (centres unmarked) [Example 29, 1-[[2-(2,3-difluoropropoxy)pyridin-4-yl]methyl]-3-spiro[3.3]heptan-2-ylurea]

More lines, now with the values behind:

Structure (SMILES)	microsomal CLint at 0.5 μM [1] [µL/min/mg]	pEC50 (human Kv7.2; [2])	pEC50 (human Kv7.5/7.3)	Kv7.5/7.3/Kv7.2 selectivity ratio (human Kv7.5/7.3)	pEC50 (human Kv7.2; Table A)
O=C(NCc1ccnc(OC(F)F)c1)N[C@H]1CC2(CCC2)[C@H]1O (racemic) [Example 26, 1-[[2-(difluoromethoxy)pyridin-4-yl]methyl]-3-[rac-(2R,3S)-3-hydroxyspiro[3.3]heptant-2-yl]urea]	11.5	6.36			
O=C(NCc1ccnc(-n2cccn2)c1)NC1CCOC2(CCCC2)C1 (centres unmarked) [Example 2, 1-(6-oxaspiro[4.5]decan-9-yl)-3-[(2-pyrazol-1-ylpyridin-4-yl)methyl]urea]		5.07			
O=C(NCc1ccnc(OC(F)F)c1)NC1COC2(CCCC2)C1 (centres unmarked) [Example 3, 1-[[2-(difluoromethoxy)pyridin-4-yl]methyl]-3-(1-oxaspiro[4.4]nonan-3-yl)urea]		6.30			
CC(F)(F)COc1cc(CNC(=O)NC2CC3(CCC3)C2)ccn1 [Example 5, 1-[[2-(2,2-difluoropropoxy)pyridin-4-yl]methyl]-3-spiro[3.3]heptan-2-ylurea]		7.70			
O=C(NCc1ccnc(OCC2CC2)c1)NC1CC2(CCC2)C1 [Example 7, 1-[[2-(cyclopropylmethoxy)pyridin-4-yl]methyl]-3-spiro[3.3]heptan-2-ylurea]		7.30			
CC(F)(F)c1cc(CNC(=O)NC2CC3(CCC3)C2)ccn1 [Example 9, 1-[[2-(1,1-difluoroethyl)pyridin-4-yl]methyl]-3-spiro[3.3]heptan-2-ylurea]	17.6	6.72			
O=C(NCc1ccnc(C(F)(F)F)c1)NC1CC2(CCC2)C1 [Example 10]		6.72			
O=C(NCc1ccnc(OCC(F)(F)F)c1)NC1CC2(CC2)C1 [Example 12, 1-spiro[2.3]hexan-5-yl-3-[[2-(2,2,2-trifluoroethoxy)pyridin-4-yl]methyl]urea]	15.2	6.77			
O=C(NC1CC2(CCC2)C1)NC(CO)c1ccnc(OCC(F)(F)F)c1 (centres unmarked) [Example 13, 1-[2-hydroxy-1-[2-(2,2,2-trifluoroethoxy)pyridin-4-yl]ethyl]-3-spiro[3.3]heptan-2-ylurea]		7.15			
O=C(NCc1ccnc(OC(F)F)c1)NC1CC2(C1)CC2(F)F (centres unmarked) [Example 15, 1-[[2-(difluoromethoxy)pyridin-4-yl]methyl]-3-(2,2-difluorospiro[2.3]hexan-5-yl)urea]	11.3	5.51			
O=C(NCc1ccnc(OC(F)F)c1)NC1(CO)CC2(CCC2)C1 [Example 18, 1-[[2-(difluoromethoxy)pyridin-4-yl]methyl]-3-[2-(hydroxymethyl)spiro[3.3]heptan-2-yl]urea]		6.39			
O=C(NCc1ccnc(OC(F)F)c1)NC1CCC2(C1)CC2(F)F (centres unmarked) [Example 19, 1-[[2-(difluoromethoxy)pyridin-4-yl]methyl]-3-(2,2-difluorospiro[2.4]heptan-6-yl)urea]		6.46	< 4.52	>86	6.46
O=C(NCc1ccnc(OC(F)F)c1)NC1COC12CCCCC2 (centres unmarked) [Example 20, 1-[[2-(difluoromethoxy)pyridin-4-yl]methyl]-3-(1-oxaspiro[3.5]nonan-3-yl)urea]		5.07			
O=C(NCc1ccnc(OC(F)F)c1)NC1C(F)(F)C12CCC2 (centres unmarked) [Example 24, 1-[[2-(difluoromethoxy)pyridin-4-yl]methyl]-3-(2,2-difluorospiro[2.3]hexan-1-yl)urea]		6.47	< 4.52	>89	6.47
O=C(NCc1ccnc(OC(F)F)c1)N[C@@H]1CC2(CCC2)[C@@H]1O [Example 28, 1-[[2-(difluoromethoxy)pyridin-4-yl]methyl]-3-[(2R,3S)-3-hydroxyspiro[3.3]heptan-2-yl]urea]		6.30	< 4.52	>60	6.30
O=C(NCc1ccnc(OC(F)F)c1)NC1COC2(CCCCC2)C1 (centres unmarked) [Example 30, 1-[[2-(difluoromethoxy)pyridin-4-yl]methyl]-3-(1-oxaspiro[4.5]decan-3-yl)urea]		6.35			
O=C(NCc1ccnc(OC(F)F)c1)NC1CCC2(CCC2)OC1 (centres unmarked) [Example 32, 1-[[2-(difluoromethoxy)pyridin-4-yl]methyl]-3-(5-oxaspiro[3.5]nonan-7-yl)urea]		6.26			
